Measurements reported in patent US20230322722A1, “MODULATORS OF MYC FAMILY PROTO-ONCOGENE PROTEIN” (Nalo Therapeutics, priority 2020, published 2023).

Columns and labels:
MycC protein = molecular target: T1, MycC protein (Homo sapiens, UniProt P01106); assay: Degradation of MycC protein, Western blot, L-363 cells (Example 160); format: cell-based; settings: 6 h
T1 construct: either 2×10^6 of L-363 (human leukemia cell line) or SKNBE2 (neuroblastoma cell line) cells; endogenous in cells; host or cells: L-363 / L363 human leukemia cells
Summary of the method: (§1)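 L-363 or SKNBE2 cells (passage <40, mostly <30) at 1×10^6 cells/mL in RPMI 1640/10% FBS were exposed 6 h to compound added from a 1 mM stock. RIPA lysates (25–30 ug protein) were analysed by SDS-PAGE and immunoblot with 1:500 primary antibody, with protein level quantified by band densitometry.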

MycN protein = molecular target: T2, MycN protein (Homo sapiens, UniProt P04198); assay: Degradation of MycN protein, Western blot, SKNBE2 cells (Example 160); format: cell-based; settings: SKNBE2, 6 h
T2 construct: either 2×10^6 of L-363 (human leukemia cell line) or SKNBE2 (neuroblastoma cell line) cells; endogenous in cells; host or cells: SKNBE2 / SK-N-BE(2) neuroblastoma cells
T2 sequence (P04198 1-464): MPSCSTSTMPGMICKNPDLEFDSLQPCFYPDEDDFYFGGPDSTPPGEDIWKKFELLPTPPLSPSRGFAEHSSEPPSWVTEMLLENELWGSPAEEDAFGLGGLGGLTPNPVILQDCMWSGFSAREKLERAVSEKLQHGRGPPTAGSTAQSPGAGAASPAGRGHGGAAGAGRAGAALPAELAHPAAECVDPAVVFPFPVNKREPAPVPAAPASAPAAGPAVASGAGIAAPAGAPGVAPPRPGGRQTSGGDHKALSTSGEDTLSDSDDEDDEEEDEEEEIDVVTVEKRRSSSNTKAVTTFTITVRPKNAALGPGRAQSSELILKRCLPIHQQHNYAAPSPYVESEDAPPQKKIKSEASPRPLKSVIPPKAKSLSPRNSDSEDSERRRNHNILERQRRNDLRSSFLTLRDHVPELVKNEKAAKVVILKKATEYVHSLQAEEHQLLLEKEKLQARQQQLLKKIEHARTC
Summary of the method: as §1

T1 sequence (P01106 whole entry): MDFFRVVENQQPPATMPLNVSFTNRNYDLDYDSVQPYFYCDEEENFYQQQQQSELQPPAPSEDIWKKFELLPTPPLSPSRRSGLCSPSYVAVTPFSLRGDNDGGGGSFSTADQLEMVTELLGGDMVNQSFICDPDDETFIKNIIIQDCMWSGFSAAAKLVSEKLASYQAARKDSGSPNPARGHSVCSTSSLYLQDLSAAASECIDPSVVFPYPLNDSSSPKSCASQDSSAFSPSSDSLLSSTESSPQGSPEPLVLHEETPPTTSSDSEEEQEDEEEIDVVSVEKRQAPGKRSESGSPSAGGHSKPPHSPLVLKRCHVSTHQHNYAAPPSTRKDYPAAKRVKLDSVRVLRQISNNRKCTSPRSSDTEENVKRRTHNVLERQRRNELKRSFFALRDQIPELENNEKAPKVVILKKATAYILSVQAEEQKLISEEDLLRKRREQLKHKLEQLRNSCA

Structure (SMILES) | inhibition at 2 µM (MycC protein) [%] | inhibition at 2 µM (MycN protein) [%]
CN(c1cc(C2CCCC2)[nH]n1)c1ccnc(N(C)[C@H]2CC[C@H](NC(=O)C3Cc4ccccc4C3)CC2)n1 [Compound 143, N-((1R,4R)-4-((4-((5-cyclopentyl-1H-pyrazol-3-yl)(methyl)amino)pyrimidin-2-yl)(methyl)amino)cyclohexyl)-2,3-dihydro-1H-indene-2-carboxamide] | < 20 | < 20
Cn1nnc(CNC(=O)[C@H]2CC[C@H](N(C)c3nccc(Nc4cc(C5CC5)[nH]n4)n3)CC2)n1 [Compound 144, (1R,4R)-4-((4-((5-cyclopropyl-1H-pyrazol-3-yl)amino)pyrimidin-2-yl)(methyl)amino)-N-((2-methyl-2H-tetrazol-5-yl)methyl)cyclohexane-1-carboxamide] | 80 to 100 | 80 to 100
Cn1nnc(C(=O)N[C@H]2CC[C@H](N(C)c3nccc(Nc4cc(C5CCCC5)[nH]n4)n3)CC2)n1 [Compound 145, N-((1R,4R)-4-((4-((5-cyclopentyl-1H-pyrazol-3-yl)amino)pyrimidin-2-yl)(methyl)amino)cyclohexyl)-2-methyl-2H-tetrazole-5-carboxamide] | 80 to 100 | 50 to 79
CN(c1cc(C2CC2)[nH]n1)c1ccnc(N(C)[C@H]2CC[C@H](NC(=O)c3nnn(C)n3)CC2)n1 [Compound 147, N-((1R,4R)-4-((4-((5-cyclopropyl-1H-pyrazol-3-yl)(methyl)amino)pyrimidin-2-yl)(methyl)amino)cyclohexyl)-2-methyl-2H-tetrazole-5-carboxamide] | 20 to 49 | < 20
CN(c1cc(C2CCCC2)[nH]n1)c1ccnc(N(C)[C@H]2CC[C@H](NC(=O)c3cccc(S(C)(=O)=O)c3)CC2)n1 [Compound 148, N-((1R,4R)-4-((4-((5-cyclopentyl-1H-pyrazol-3-yl)(methyl)amino)pyrimidin-2-yl)(methyl)amino)cyclohexyl)-3-(methylsulfonyl)benzamide] | 20 to 49 | < 20

Continued, values first:

inhibition at 2 µM (MycC protein) [%] | inhibition at 2 µM (MycN protein) [%] | Structure (SMILES)
80 to 100 | 80 to 100 | CN(c1nccc(Nc2cc(C3CC3)[nH]n2)n1)[C@H]1CC[C@H](NC(=O)c2cn(C3COC3)nn2)CC1 [Compound 149, N-((1R,4R)-4-((4-((5-cyclopropyl-1H-pyrazol-3-yl)amino)pyrimidin-2-yl)(methyl)amino)cyclohexyl)-1-(oxetan-3-yl)-1H-1,2,3-triazole-4-carboxamide]
80 to 100 | 80 to 100 | CN(c1nccc(Nc2cc(C3CC3)[nH]n2)n1)[C@H]1CC[C@H](NC(=O)c2cn(CC3(C)COC3)nn2)CC1 [Compound 150, N-((1R,4R)-4-((4-((5-cyclopropyl-1H-pyrazol-3-yl)amino)pyrimidin-2-yl)(methyl)amino)cyclohexyl)-1-((3-methyloxetan-3-yl)methyl)-1H-1,2,3-triazole-4-carboxamide]
80 to 100 | 80 to 100 | Cn1nnc2ccc(C(=O)N[C@H]3CC[C@H](N(C)c4nccc(Nc5cc(C6CC6)[nH]n5)n4)CC3)cc21 [Compound 151, N-((1R,4R)-4-((4-((5-cyclopropyl-1H-pyrazol-3-yl)amino)pyrimidin-2-yl)(methyl)amino)cyclohexyl)-1-methyl-1H-benzo[d][1,2,3]triazole-6-carboxamide]
80 to 100 | 80 to 100 | CN(c1nccc(Nc2cc(C3CC3)[nH]n2)n1)[C@H]1CC[C@H](NS(=O)(=O)Cc2cccc(C(F)(F)F)c2)CC1 [Compound 152, N-((1R,4R)-4-((4-((5-cyclopropyl-1H-pyrazol-3-yl)amino)pyrimidin-2-yl)(methyl)amino)cyclohexyl)-1-(3-(trifluoromethyl)phenyl)methanesulfonamide]
80 to 100 | 50 to 79 | CN(c1nccc(Nc2cc(C3CC3)[nH]n2)n1)[C@H]1CC[C@H](NS(=O)(=O)c2cccc(C#N)c2)CC1 [Compound 154, 3-cyano-N-((1R,4R)-4-((4-((5-cyclopropyl-1H-pyrazol-3-yl)amino)pyrimidin-2-yl)(methyl)amino)cyclohexyl)benzenesulfonamide]
